# Assay results from patent US20090176817A1, “Method of Treatment of Diarrhea-Predominant Irritable Bowel Syndrome in a Subject” (priority 2005, published 2009).
# What was measured:
# clinical [1] = conditions: human, in vivo; for half-life: T½
# Method: (§1) Two randomized, double-blind, placebo controlled, balanced incomplete block design, crossover studies evaluated the single- and multiple-dose pharmacokinetics of oral cilansetron over a 8 mg to 32 mg dose range. In both studies, subjects were randomized to receive two of three treatments during 2 treatment periods. In one study (12 male and 13 female subjects, aged 23 to 36 years), subjects received 8 mg cilansetron, 16 mg cilansetron, or placebo, while in another study (12 males and 13 females, aged 23 to 41 years), subjects received 16 mg cilansetron, 32 mg cilansetron, or placebo. During each treatment period, subjects received a single dose of their assigned treatment on the first day, followed by a 3-day washout, after which they received the same treatment TID for 5 days.
# (§2) There was a 5-6 day washout period between treatment periods. Doses on the mornings of pharmacokinetic days were administered under fasted conditions. Serial blood sampling and urine collection was performed up to 12 hours following morning dosing on the first day (single dose) and on the last multiple dosing day of each treatment period, and cilansetron pharmacokinetic parameters were evaluated.
# (§3) In two randomized, double-blind, placebo controlled, balanced incomplete block design, crossover studies evaluating the single- and multiple-dose pharmacokinetics of oral cilansetron over a 8 mg to 32 mg dose range, subjects were randomized to receive two of three treatments during 2 treatment periods. In Study S.241.1.101; (12 male and 13 female subjects, aged 23 to 36 years), subjects received 8 mg cilansetron, 16 mg cilansetron, or placebo, while in Study S.24 1.1.102; (12 males and 13 females, aged 23 to 41 years), subjects received 16 mg cilansetron, 32 mg cilansetron, or placebo. During each treatment period, subjects received a single dose of their assigned treatment on the first day, followed by a 3-day washout, after which they received the same treatment TID for 5 days. There was a 5-6 day washout period between treatment periods. Doses on the mornings of pharmacokinetic days were administered under fasted conditions. Serial blood sampling and urine collection was performed up to 12 hours following morning dosing on the first day (single dose) and on the last multiple dosing day of each treatment period, and cilansetron pharmacokinetic parameters were evaluated.
# IBS patients = assay: Study K.241.5016: colonic visceral perception; assay type: in vivo, human
# Method: The effect of cilansetron on colonic visceral perception was evaluated in a randomized, doubleblind, placebo-controlled, 2-way crossover study in 16 male and female IBS patients (ITT population), aged 28-66 years. Subjects received single IV doses of placebo or cilansetron 16 mg as 30-minute infusions on two consecutive study days, with no washout between the study days. Colonic distension tests were performed just prior to dosing and after completion of the infusion during each treatment. An electronic barostat was used to produce distensions (successive 4 mmHg increases every 5 minutes, up to a sensation of abdominal pain or a maximum of 40 mmHg). The primary efficacy parameter was the mean distension pressure inducing a sensation of abdominal pain. Secondary effect parameters were the mean distension pressure inducing a sensation of abdominal discomfort, and the response rate, defined as the number of patients experiencing no abdominal pain at the maximum pressure of 40 mmHg. The primary and secondary parameters were compared between cilansetron and placebo treatments using an ANOVA.
# clinical [2] = conditions: human, in vivo
# Method: as §1, §2, §3
# [3] = male, human, in vivo
# Method: Subjects were treated with a single oral dose of cilansetron 8 mg (tablet) on Day 1, followed by 8 mg TID for 5 days (Days 2-6) and a single 8 mg dose on the morning of Day 7. Young subjects ranged in age from 19-45 years, and elderly from 66-79 years. Serial blood samples were collected up to 24 hours postdose on Days 1 and 7, and cilansetron pharmacokinetic parameters were calculated. Doses on pharmacokinetic sampling days were administered under fasted conditions.
# Young subjects ranged in age from 19-45 years, and elderly from 66-79 years. Serial blood samples were collected up to 24 hours postdose on Days 1 and 7, and cilansetron pharmacokinetic parameters were evaluated. Doses on pharmacokinetic sampling days were administered under fasted conditions.
# healthy subjects = assay: Study K.241.5009: esophageal motility; assay type: in vivo, human; conditions: mean
# Method: The effect of cilansetron on esophageal motility was evaluated in a randomized, double-blind, placebo-controlled, 3-way crossover study in 12 male healthy subjects (ITT population), aged 32-62 years. Subjects received placebo, cilansetron 4 mg, or cilansetron 8 mg administered orally TID for 7 days during each of the 3 periods, with a 7-day washout between periods. Before conduct of esophageal distension tests using an intraesophageal balloon, primary esophageal motility was induced by at least 5 wet swallows of 5 mL water and […] manometrically registered. Amplitude and duration of esophageal contractions were measured in 3 channels proximal and distal to the balloon and the velocity of propagation of contractions was […] measured over the 2 inter-channel intervals. […] For velocity of propagation, a slight trend towards […] reduced velocity with increasing cilansetron dose was found in the 7-2 cm interval but not in the 17-7 cm interval, and there was no effects seen on onset in either interval.
# [4] = tested on: CYP2A6, CYP2B6, CYP2C9, CYP2D6, and CYP2E1
# Method: The CYP mRNA induction potentials of cilansetron and its two main metabolites, (4S)-hydroxy and (4R)-hydroxy cilansetron, were determined in human hepatocytes and compared to three model inducers, 3-methylcholantrene, phenobarbital, and rifampin.
# [5] = 16 mg single IV dose, ANOVA, not significant
# [6] = 16 mg single IV dose, postdose minus predose, IBS patients, mean (SD)
# [7] = channel 2 cm, 4 mg TID oral 7 days
# [8] = channel 2 cm, 8 mg TID oral 7 days
# [9] = channel 7 cm, 4 mg TID oral 7 days
# [10] = channel 7 cm, 8 mg TID oral 7 days
# [11] = channel 17 cm, 4 mg TID oral 7 days
# [12] = channel 17 cm, 8 mg TID oral 7 days
# [13] = inter-channel interval 7-2 cm, 4 mg TID oral 7 days
# [14] = inter-channel interval 7-2 cm, 8 mg TID oral 7 days
# [15] = inter-channel interval 17-7 cm, 4 mg TID oral 7 days
# [16] = inter-channel interval 17-7 cm, 8 mg TID oral 7 days
smiles,measurement,setting,value
"Cc1nccn1C[C@H]1CCc2c(c3cccc4c3n2CCC4)C1=O [Cilansetron, (R)-(−)-4,5,6,8,9,10-hexahydro-10-[(2-methyl-1H-imidazol-1-yl)methyl]-11H-pyrido-[3,2,1-jk]-carbazol-11-one]",half-life,"clinical [1]; both, 16 mg",1.35 h
same,Tmax,"clinical [1]; both, 32 mg",1 h
same,AUC,"clinical [1]; both, 32 mg",451 ng·h/mL
same,Cmax,"clinical [1]; both, 32 mg",216 ng/mL
same,half-life,"clinical [1]; both, 32 mg",1.22 h
same,Tmax,"clinical [1]; female, 32 mg",1 h
same,AUC,"clinical [1]; female, 32 mg",405 ng·h/mL
same,Cmax,"clinical [1]; female, 32 mg",210 ng/mL
same,half-life,"clinical [1]; female, 32 mg",1.08 h
same,Tmax,"clinical [1]; female, po, 16 mg",1 h
same,Tmax,"clinical [1]; female, po, 32 mg",1 h
same,AUC,"clinical [1]; female, po, 32 mg",433 ng·h/mL
same,Cmax,"clinical [1]; female, po, 32 mg",270 ng/mL
same,half-life,"clinical [1]; female, po, 32 mg",1.01 h
same,Tmax,"clinical [1]; male, 32 mg",1 h
same,AUC,"clinical [1]; male, 32 mg",354 ng·h/mL
same,Cmax,"clinical [1]; male, 32 mg",140 ng/mL
same,half-life,"clinical [1]; male, 32 mg",1.4 h
same,Tmax,"clinical [1]; male, po, 16 mg",1 h
same,Tmax,"clinical [1]; male, po, 32 mg",1.5 h
same,AUC,"clinical [1]; male, po, 32 mg",469 ng·h/mL
same,Cmax,"clinical [1]; male, po, 32 mg",161 ng/mL
same,half-life,"clinical [1]; male, po, 32 mg",1.44 h
same,Responders (no abdominal pain at 40 mmHg),IBS patients; 16 mg IV,1 of 12
same,"Pressure inducing abdominal pain, Mean Difference to Placebo",IBS patients; [5],−1.33 mmHg
same,"Pressure inducing abdominal sensation, Mean Difference to Placebo",IBS patients; [5],−0.67 mmHg
same,"Pressure inducing abdominal pain, Difference Postdose",IBS patients; [6],3.67 (4.66) mmHg
same,"Pressure inducing abdominal sensation, Difference Postdose",IBS patients; [6],2.67 (3.55) mmHg
same,Tmax,clinical [2]; both,1 h
same,Tmax,"clinical [2]; both, 8 mg",1 h
same,AUC,"clinical [2]; both, 8 mg",112 ng·h/mL
same,Cmax,"clinical [2]; both, 8 mg",43.3 ng/mL
same,half-life,"clinical [2]; both, 8 mg, T½",1.44 h
same,half-life,"clinical [2]; both, 16 mg, T½",1.3 h
same,half-life,"clinical [2]; both, Mean half-life",1.2 to 1.4 h
same,Tmax,"clinical [2]; female, 8 mg",1 h
same,AUC,"clinical [2]; female, 8 mg",104 ng·h/mL
same,Cmax,"clinical [2]; female, 8 mg",43.2 ng/mL
same,half-life,"clinical [2]; female, 8 mg, T½",1.41 h
same,Tmax,"clinical [2]; female, po, 8 mg",1 h
same,AUC,"clinical [2]; female, po, 8 mg",138 ng·h/mL
same,Cmax,"clinical [2]; female, po, 8 mg",52.2 ng/mL
same,half-life,"clinical [2]; female, po, 8 mg, T½",1.45 h
same,Tmax,"clinical [2]; female, po, 16 mg",1 h
same,Tmax,"clinical [2]; male, 8 mg",1 h
same,AUC,"clinical [2]; male, 8 mg",74.5 ng·h/mL
same,Cmax,"clinical [2]; male, 8 mg",35.8 ng/mL
same,half-life,"clinical [2]; male, 8 mg, T½",1.22 h
same,Tmax,"clinical [2]; male, po, 8 mg",1 h
same,AUC,"clinical [2]; male, po, 8 mg",89.9 ng·h/mL
same,Cmax,"clinical [2]; male, po, 8 mg",35.5 ng/mL
same,half-life,"clinical [2]; male, po, 8 mg, T½",1.44 h
same,Tmax,"clinical [2]; male, po, 16 mg",1 h
same,AUC(0-inf),[3],252 (123) ng · h/mL
same,"Contraction Force Amplitude, Absolute Values",healthy subjects; [7],88.3 mmHg
same,"Contraction Force Amplitude, Change from Placebo",healthy subjects; [7],−4.2 mmHg
same,"Contraction Force Duration, Absolute Values",healthy subjects; [7],4.5 s
same,"Contraction Force Duration, Change from Placebo",healthy subjects; [7],-0.0 s
same,"Contraction Force Amplitude, Absolute Values",healthy subjects; [8],85.5 mmHg
same,"Contraction Force Amplitude, Change from Placebo",healthy subjects; [8],−7.1 mmHg
same,"Contraction Force Duration, Absolute Values",healthy subjects; [8],5.0 s
same,"Contraction Force Duration, Change from Placebo",healthy subjects; [8],0.4 s
same,"Contraction Force Amplitude, Absolute Values",healthy subjects; [9],84.7 mmHg
same,"Contraction Force Amplitude, Change from Placebo",healthy subjects; [9],−3.6 mmHg
same,"Contraction Force Duration, Absolute Values",healthy subjects; [9],3.7 s
same,"Contraction Force Duration, Change from Placebo",healthy subjects; [9],-0.5 s
same,"Contraction Force Amplitude, Absolute Values",healthy subjects; [10],85.4 mmHg
same,"Contraction Force Amplitude, Change from Placebo",healthy subjects; [10],−2.8 mmHg
same,"Contraction Force Duration, Absolute Values",healthy subjects; [10],4.0 s
same,"Contraction Force Duration, Change from Placebo",healthy subjects; [10],-0.2 s
same,"Contraction Force Amplitude, Absolute Values",healthy subjects; [11],61.5 mmHg
same,"Contraction Force Amplitude, Change from Placebo",healthy subjects; [11],−5.3 mmHg
same,"Contraction Force Duration, Absolute Values",healthy subjects; [11],3.0 s
same,"Contraction Force Duration, Change from Placebo",healthy subjects; [11],0.1 s
same,"Contraction Force Amplitude, Absolute Values",healthy subjects; [12],59.3 mmHg
same,"Contraction Force Amplitude, Change from Placebo",healthy subjects; [12],−7.5 mmHg
same,"Contraction Force Duration, Absolute Values",healthy subjects; [12],2.9 s
same,"Contraction Force Duration, Change from Placebo",healthy subjects; [12],-0.0 s
same,"Velocity of Propagation, Onset, Absolute Values",healthy subjects; [13],3.7 cm/sec
same,"Velocity of Propagation, Onset, Change from Placebo",healthy subjects; [13],0.4 cm/sec
same,"Velocity of Propagation, Peak, Absolute Values",healthy subjects; [13],3.6 cm/sec
same,"Velocity of Propagation, Peak, Change from Placebo",healthy subjects; [13],−0.2 cm/sec
same,"Velocity of Propagation, Onset, Absolute Values",healthy subjects; [14],3.5 cm/sec
same,"Velocity of Propagation, Onset, Change from Placebo",healthy subjects; [14],0.2 cm/sec
same,"Velocity of Propagation, Peak, Absolute Values",healthy subjects; [14],3.3 cm/sec
same,"Velocity of Propagation, Peak, Change from Placebo",healthy subjects; [14],−0.5 cm/sec
same,"Velocity of Propagation, Onset, Absolute Values",healthy subjects; [15],2.3 cm/sec
same,"Velocity of Propagation, Onset, Change from Placebo",healthy subjects; [15],0.0 cm/sec
same,"Velocity of Propagation, Peak, Absolute Values",healthy subjects; [15],2.8 cm/sec
same,"Velocity of Propagation, Peak, Change from Placebo",healthy subjects; [15],0.1 cm/sec
same,"Velocity of Propagation, Onset, Absolute Values",healthy subjects; [16],2.3 cm/sec
same,"Velocity of Propagation, Onset, Change from Placebo",healthy subjects; [16],−0.0 cm/sec
same,"Velocity of Propagation, Peak, Absolute Values",healthy subjects; [16],2.7 cm/sec
same,"Velocity of Propagation, Peak, Change from Placebo",healthy subjects; [16],0.0 cm/sec
same,Inductive effect on other CYP isozymes,[4],did not show an inductive effect
